Data reported in ChEMBL document CHEMBL5537158, “Polymyxins with Potent Antibacterial Activity against Colistin-Resistant Pathogens: Fine-Tuning Hydrophobicity with Unnatural Amino Acids” (J Med Chem, 2024).
Positions of bridges follow the written chain, without caps; N, C: chain ends. Non-standard residues stand in square brackets, D forms with d. Residues, ends and D or L forms follow the SMILES beside them. *: point of attachment. d(hhPhe) = N[C@H](CCCc1ccccc1)C(=O)O; d(hPhe) = N[C@H](CCc1ccccc1)C(=O)O; d(hLeu) = CC(C)CC[C@@H](N)C(=O)O; dAoc(2) = CCCCCC[C@@H](N)C(=O)O; Octanoyl = CCCCCCCC(=O)*; Dab = NCC[C@H](N)C(=O)O

Experiment: Hemolytic activity in human RBC at 400 ug/ml after 1 hr
Assay type: toxicity, cell-based, Erythrocyte
Conditions: red blood cells (erythrocytes), at 400 µg/mL, read-out: Activity
Compound CCCCCCCC(=O)N[C@@H](CCN)C(=O)N[C@H](C(=O)N[C@@H](CCN)C(=O)N[C@H]1CCNC(=O)[C@H]([C@@H](C)O)NC(=O)[C@H](CCN)NC(=O)[C@H](CCN)NC(=O)[C@H](CCCc2ccccc2)NC(=O)[C@@H](Cc2ccccc2)NC(=O)[C@H](CCN)NC1=O)[C@@H](C)O has a hemolysis at 1 h, 400 ug/ml of less than 10%. For CCCCCCCC(=O)N[C@@H](CCN)C(=O)N[C@H](C(=O)N[C@@H](CCN)C(=O)N[C@H]1CCNC(=O)[C@H]([C@@H](C)O)NC(=O)[C@H](CCN)NC(=O)[C@H](CCN)NC(=O)[C@H](CC(C)C)NC(=O)[C@@H](Cc2ccc(Br)cc2)NC(=O)[C@H](CCN)NC1=O)[C@@H](C)O, the hemolysis at 1 h, 400 ug/ml was less than 10%. CCCCCCCC(=O)N[C@@H](CCN)C(=O)N[C@H](C(=O)N[C@@H](CCN)C(=O)N[C@H]1CCNC(=O)[C@H]([C@@H](C)O)NC(=O)[C@H](CCN)NC(=O)[C@H](CCN)NC(=O)[C@H](CCCCCC)NC(=O)[C@@H](Cc2ccccc2)NC(=O)[C@H](CCN)NC1=O)[C@@H](C)O showed a hemolysis at 1 h, 400 ug/ml of less than 10%. Compound CC(=O)N[C@H](Cc1ccccc1F)C(=O)N[C@@H](CCN)C(=O)N[C@H](C(=O)N[C@@H](CCN)C(=O)N[C@H]1CCNC(=O)[C@H]([C@@H](C)O)NC(=O)[C@H](CCN)NC(=O)[C@H](CCN)NC(=O)[C@H](CC(C)C)NC(=O)[C@@H](Cc2ccccc2)NC(=O)[C@@H](CCN)NC1=O)[C@H](C)O has a hemolysis at 1 h, 400 ug/ml of less than 10%. CCCCCCCC(=O)N[C@@H](CCN)C(=O)N[C@H](C(=O)N[C@@H](CCN)C(=O)N[C@H]1CCNC(=O)[C@H]([C@@H](C)O)NC(=O)[C@H](CCN)NC(=O)[C@H](CCN)NC(=O)[C@H](Cc2ccccc2)NC(=O)[C@@H](CCC(C)C)NC(=O)[C@H](CCN)NC1=O)[C@@H](C)O (Octanoyl-[Dab]T[Dab][Dab][Dab][d(hLeu)]F[Dab][Dab]T; lactam 4-C) showed a hemolysis at 1 h, 400 ug/ml of less than 10%. CCCCCCCC(=O)N[C@@H](CCN)C(=O)N[C@H](C(=O)N[C@@H](CCN)C(=O)N[C@H]1CCNC(=O)[C@H]([C@@H](C)O)NC(=O)[C@H](CCN)NC(=O)[C@H](CCN)NC(=O)[C@H](Cc2ccccc2)NC(=O)[C@@H](CCc2ccccc2)NC(=O)[C@H](CCN)NC1=O)[C@@H](C)O (Octanoyl-[Dab]T[Dab][Dab][Dab][d(hPhe)]F[Dab][Dab]T; lactam 4-C) gave a hemolysis at 1 h, 400 ug/ml of less than 10%. Compound CCCCCCCC(=O)N[C@@H](CCN)C(=O)N[C@H](C(=O)N[C@@H](CCN)C(=O)N[C@H]1CCNC(=O)[C@H]([C@@H](C)O)NC(=O)[C@H](CCN)NC(=O)[C@H](CCN)NC(=O)[C@H](CC(C)C)NC(=O)[C@@H](CCc2ccccc2)NC(=O)[C@H](CCN)NC1=O)[C@@H](C)O (Octanoyl-[Dab]T[Dab][Dab][Dab][d(hPhe)]L[Dab][Dab]T; lactam 4-C) has a hemolysis at 1 h, 400 ug/ml of less than 10%. Compound CCCCCCCC(=O)N[C@@H](CCN)C(=O)N[C@H](C(=O)N[C@@H](CCN)C(=O)N[C@H]1CCNC(=O)[C@H]([C@@H](C)O)NC(=O)[C@H](CCN)NC(=O)[C@H](CCN)NC(=O)[C@H](Cc2ccccc2)NC(=O)[C@@H](CCCc2ccccc2)NC(=O)[C@H](CCN)NC1=O)[C@@H](C)O (Octanoyl-[Dab]T[Dab][Dab][Dab][d(hhPhe)]F[Dab][Dab]T; lactam 4-C) has a hemolysis at 1 h, 400 ug/ml of less than 10%. CCCCCCCC(=O)N[C@@H](CCN)C(=O)N[C@H](C(=O)N[C@@H](CCN)C(=O)N[C@H]1CCNC(=O)[C@H]([C@@H](C)O)NC(=O)[C@H](CCN)NC(=O)[C@H](CCN)NC(=O)[C@H](CC(C)C)NC(=O)[C@@H](CCCc2ccccc2)NC(=O)[C@H](CCN)NC1=O)[C@@H](C)O (Octanoyl-[Dab]T[Dab][Dab][Dab][d(hhPhe)]L[Dab][Dab]T; lactam 4-C) gave a hemolysis at 1 h, 400 ug/ml of less than 10%. CCCCCCCC(=O)N[C@@H](CCN)C(=O)N[C@H](C(=O)N[C@@H](CCN)C(=O)N[C@H]1CCNC(=O)[C@H]([C@@H](C)O)NC(=O)[C@H](CCN)NC(=O)[C@H](CCN)NC(=O)[C@H](Cc2ccccc2)NC(=O)[C@@H](CCCCCC)NC(=O)[C@H](CCN)NC1=O)[C@@H](C)O (Octanoyl-[Dab]T[Dab][Dab][Dab][dAoc(2)]F[Dab][Dab]T; lactam 4-C) showed a hemolysis at 1 h, 400 ug/ml of less than 10%.
